# Laboratory results published in patent US20250269039A1, “THERAPEUTIC-OLIGONUCLEOTIDES ACTIVATED BY NUCLEASES” (priority 2020, published 2025).
# Like-named read-outs stand apart in the source and are kept apart here.
# Legend:
# [1] = Complete blood counts of infected/treated mice; settings: for percentage of neutrophils in blood: infected treated mice, after 24 hours, FIG. 7i; for BAS / BAS % / EO / EO % / HCT / HGB / LYM / LYM % / MCH / MCHC / MCV / MON / MON % / NE / NE % / PLT / RBC / RET / RET % / WBC: infected/treated mice, blood after 24 hours, AVG, n = 4; for change of red blood cells (RBCs), hematocrit and hemoglobin (acute blood toxicity): treated mice versus uninfected and placebo groups, FIG. 11
# [2] = tested on: S. aureus ATCC 1768 (MRSA); assay: Broth microdilution MIC and growth inhibition; format: cell-based, Staphylococcus aureus; settings: for MIC: 18 h, TOUCAN as NA equivalent
# Method in brief: (§1)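 Broth microdilution in cation-adjusted Mueller Hinton Broth, final inoculum 5×10^5 CFU/mL, with compounds serially diluted in PBS+/+ (PBS+/+ alone as untreated control). Incubation was at 37° C with OD600 read every 10 minutes for 18 hours. MIC was the lowest concentration without visible growth after 18 hours.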
# [3] = tested on: S. aureus ATCC 29213 (MSSA); assay: Broth microdilution MIC and growth inhibition; format: cell-based, Staphylococcus aureus
# Method in brief: as §1
# [4] = tested on: S. aureus ATCC 1707 (MRSA); assay: Broth microdilution MIC and growth inhibition; format: cell-based, Staphylococcus aureus; settings: for MIC: 18 h, TOUCAN as NA equivalent
# Method in brief: as §1
# [5] = tested on: S. aureus ATCC 1761 (MRSA); assay: Broth microdilution MIC and growth inhibition; format: cell-based, Staphylococcus aureus; settings: for MIC: 18 h, TOUCAN as NA equivalent
# Method in brief: as §1
# [6] = tested on: S. aureus ATCC 1717 (MRSA); assay: Broth microdilution MIC and growth inhibition; format: cell-based, Staphylococcus aureus; settings: for MIC: 18 h, TOUCAN as NA equivalent
# Method in brief: as §1
# [7] = tested on: S. aureus ATCC 1747 (MRSA); assay: Broth microdilution MIC and growth inhibition; format: cell-based, Staphylococcus aureus; settings: for MIC: 18 h, TOUCAN as NA equivalent
# Method in brief: as §1
# [8] = tested on: S. aureus ATCC 43300 (MRSA); assay: Broth microdilution MIC and growth inhibition; format: cell-based, Staphylococcus aureus; settings: for MIC: 18 h, TOUCAN as NA equivalent
# Method in brief: as §1
# [9] = tested on: S. aureus NCTC 12493 (MRSA); assay: Broth microdilution MIC and growth inhibition; format: cell-based, Staphylococcus aureus
# Method in brief: as §1
# S. aureus = assay: Growth inhibition curves / MICs in S. aureus cultures (strain not named or summary over strains); format: cell-based, Staphylococcus aureus; settings: Staphylococcus aureus, read-out: MIC values over all S. aureus strains tested
# Experimental: (§2) Antimicrobial susceptibility testing. Minimal inhibitory concentrations (MIC) of all nucleoside analogues and TOUCANs against each bacteria strain were determined using broth microdilution method. A single colony obtained from overnight culture on tryptone soy agar with 5% defibrinated sheep blood was inoculated in cation-adjusted Mueller Hinton Broth and adjusted to 10^6 CFU/mL. TOUCANs were prepared in PBS+/+ (treatment) and serial dilutions were made in 96-well polystyrene round bottom microwell plates with 50 μL final volume for each concentration. PBS+/+ was used as untreated control. Next, 50 μL bacteria solutions were added to each well to a final bacteria concentration of 5×10^5 CFU/mL. Plates were incubated at 37° C. in Cytation 1 Cell Imaging Multimode Reader. Growth curves were obtained by measuring optical densities at 600 nm every 10 minutes for 18 hours using Cytation 1 Cell Imaging Multimode Reader. In addition, visual inspection of the plates was carried out after 18 hours and photographs were taken. MICs were defined as the lowest drug concentration in the microwell at which bacterial growth was not visible at the end of the incubation period. Besides MIC determination, specificity of TOUCAN 7mGe was also shown with subcultures on chromogenic media. For this purpose, 5 μL of different concentrations of each strain were inoculated onto CHROM agar Orientation Media (Becton Dickinson) and the bacterial growth of each bacteria strain tested was observed by naked eye after incubation at 37° C. for 24 hours. Finally, photographs of the chromogenic media were taken.
# [10] = tested on: S. epidermidis ATCC 35984; assay: Broth microdilution MIC and growth inhibition (control bacteria); format: cell-based, Staphylococcus epidermidis; settings: for MIC: 18 h, TOUCAN as NA equivalent
# Excerpt: Bacteria strains. S. aureus NCTC 12493 (MRSA), S. aureus ATCC 29213 (MSSA), S. aureus ATCC 43300 (MRSA), S. aureus ATCC 1707 (MRSA), S. aureus ATCC 1717 (MRSA), S. aureus ATCC 1747 (MRSA), S. aureus ATCC 1761 (MRSA), S. aureus ATCC 1766 (MRSA), S. aureus ATCC 1768 (MRSA), S. epidermidis ATCC 35984, E. coli ATCC 25922, K. pneumoniae ATCC 13883, P. mirabilis ATCC 25933, S. enterica ATCC 14028 and P. aeruginosa ATCC 10145 strains were used in this study. Bacteria were initially inoculated onto tryptone soy agar with 5% defibrinated sheep blood (Thermo Fisher Scientific, Inc., Waltham, MA, USA) and incubated at 37° C. for 24 hours. Then, single colonies of each strain were transferred to tryptone soy broth (Thermo Fisher Scientific) for the nuclease activity assay or antimicrobial susceptibility testing, respectively.
# as §2
# [11] = Staphylococcus aureus, read-out: MIC
compound,measurement,setting,value
"O=c1[nH]c(=O)n([C@H]2C[C@H](O)[C@@H](CO)O2)cc1F [Floxuridine, reference compound]",percentage of neutrophils in blood,[1],30.3%
same,BAS,[1],0.0 10^9/L
same,BAS %,[1],0.5%
same,EO,[1],0.0 10^9/L
same,EO %,[1],1.0%
same,HCT,[1],40.8%
same,HGB,[1],12.8 g/dL
same,LYM,[1],1.1 10^9/L
same,LYM %,[1],48.9%
same,MCH,[1],14.8 pg
same,MCHC,[1],31.5 g/dL
same,MCV,[1],47.4 fL
same,MON,[1],0.3 10^9/L
same,MON %,[1],13.5%
same,NE,[1],0.7 10^9/L
same,NE %,[1],36.1%
same,PLT,[1],599.3 K/μL
same,RBC,[1],8.6e+12 L⁻¹
same,RET,[1],384.9 K/μL
same,RET %,[1],4.5%
same,WBC,[1],2.2 10^9/L
same,"change of red blood cells (RBCs), hematocrit and hemoglobin (acute blood toxicity)",[1],reduction
same,MIC,[2]; [11],0.04 µg/mL
same,MIC,"[3]; Staphylococcus aureus, S. aureus ATCC 29213 (MSSA), 18 h, TOUCAN as NA equivalent, read-out: MIC",0.08 µg/mL
same,MIC,"[3]; Staphylococcus aureus, Table 1, S. aureus ATCC 29213, read-out: MIC",0.08 µg/mL
same,% Growth inhibition,"[3]; Table 1, S. aureus ATCC 29213, mean ± SD, n = 3",93.1 ± 0.3%
same,MIC,[4]; [11],0.04 µg/mL
same,MIC,[5]; [11],0.005 µg/mL
same,MIC,[6]; [11],0.08 µg/mL
same,MIC,[7]; [11],0.005 µg/mL
same,MIC,[8]; [11],0.04 µg/mL
same,MIC,"[9]; Staphylococcus aureus, S. aureus NCTC 12493 (MRSA), 18 h, TOUCAN as NA equivalent, read-out: MIC",0.32 µg/mL
same,MIC,"[9]; Staphylococcus aureus, Table 1, S. aureus NCTC 12493, read-out: MIC",0.32 µg/mL
same,% Growth inhibition,"[9]; Table 1, S. aureus NCTC 12493, mean ± SD, n = 3",87.9 ± 0.4%
same,MIC,S. aureus,0.005 to 0.32 µg/mL
same,MIC,"[10]; Staphylococcus epidermidis, ATCC35984, S. epidermidis ATCC 35984, read-out: MIC",0.04 µg/mL
mU-mU-mU-mU-T-T-Fx [TOUCAN 7mFx],percentage of neutrophils in blood,[1],13.8%
same,BAS,[1],0.0 10^9/L
same,BAS %,[1],0.3%
same,EO,[1],0.0 10^9/L
same,EO %,[1],1.3%
same,HCT,[1],44.5%
same,HGB,[1],14.0 g/dL
same,LYM,[1],1.6 10^9/L
same,LYM %,[1],68.6%
same,MCH,[1],15.0 pg
same,MCHC,[1],31.4 g/dL
same,MCV,[1],47.9 fL
same,MON,[1],0.4 10^9/L
same,MON %,[1],15.7%
same,NE,[1],0.3 10^9/L
same,NE %,[1],14.1%
same,PLT,[1],630.0 K/μL
same,RBC,[1],9.3e+12 L⁻¹
same,RET,[1],257.7 K/μL
same,RET %,[1],2.8%
same,WBC,[1],2.4 10^9/L
same,"change of red blood cells (RBCs), hematocrit and hemoglobin (acute blood toxicity)",[1],no difference
same,TOUCAN MIC/NA MIC TOUCAN Efficacy Ratio (TER),[2],62.5
same,MIC,[2],2.5 µg/mL
same,TOUCAN % Growth inhibition,"[2]; mean ± SD, n = 3",93.2 ± 0.3%
same,TOUCAN MIC/NA MIC TOUCAN Efficacy Ratio (TER),[3]; S. aureus ATCC 29213 (MSSA),250
same,MIC,"[3]; S. aureus ATCC 29213 (MSSA), 18 h, TOUCAN as NA equivalent",20 µg/mL
same,TOUCAN % Growth inhibition,"[3]; S. aureus ATCC 29213 (MSSA), mean ± SD, n = 3",92.3 ± 0.09%
same,TOUCAN MIC/NA MIC TOUCAN Efficacy Ratio (TER),[4],125
same,MIC,[4],5 µg/mL
same,TOUCAN % Growth inhibition,"[4]; mean ± SD, n = 3",94.6 ± 0.08%
same,TOUCAN MIC/NA MIC TOUCAN Efficacy Ratio (TER),[5],500
same,MIC,[5],2.5 µg/mL
same,TOUCAN % Growth inhibition,"[5]; mean ± SD, n = 3",93.9 ± 0.05%
same,TOUCAN MIC/NA MIC TOUCAN Efficacy Ratio (TER),[6],125
same,MIC,[6],10 µg/mL
same,TOUCAN % Growth inhibition,"[6]; mean ± SD, n = 3",94.5 ± 0.04%
same,TOUCAN MIC/NA MIC TOUCAN Efficacy Ratio (TER),[7],500
same,MIC,[7],2.5 µg/mL
same,TOUCAN % Growth inhibition,"[7]; mean ± SD, n = 3",92.8 ± 0.7%
same,TOUCAN MIC/NA MIC TOUCAN Efficacy Ratio (TER),[8],1000
same,MIC,[8],40 µg/mL
same,TOUCAN % Growth inhibition,"[8]; mean ± SD, n = 3",92.8 ± 0.7%
same,TOUCAN MIC/NA MIC TOUCAN Efficacy Ratio (TER),[9]; S. aureus NCTC 12493 (MRSA),125
same,MIC,"[9]; S. aureus NCTC 12493 (MRSA), 18 h, TOUCAN as NA equivalent",40 µg/mL
same,TOUCAN % Growth inhibition,"[9]; S. aureus NCTC 12493 (MRSA), mean ± SD, n = 3",91.5 ± 0.00%
same,MIC,[10]; S. epidermidis ATCC 35984,>40 µg/mL
same,TOUCAN % Growth inhibition,"[10]; S. epidermidis ATCC 35984, mean ± SD, n = 3",7.4 ± 4.0%
same,"growth inhibition, dose response","[10]; S. epidermidis, all concentrations tested, FIG. 5",no growth inhibition
